The target of assay [1] is T1, LANCL2 (Homo sapiens, UniProt Q9NS86).
T1 sequence (Q9NS86 1-450): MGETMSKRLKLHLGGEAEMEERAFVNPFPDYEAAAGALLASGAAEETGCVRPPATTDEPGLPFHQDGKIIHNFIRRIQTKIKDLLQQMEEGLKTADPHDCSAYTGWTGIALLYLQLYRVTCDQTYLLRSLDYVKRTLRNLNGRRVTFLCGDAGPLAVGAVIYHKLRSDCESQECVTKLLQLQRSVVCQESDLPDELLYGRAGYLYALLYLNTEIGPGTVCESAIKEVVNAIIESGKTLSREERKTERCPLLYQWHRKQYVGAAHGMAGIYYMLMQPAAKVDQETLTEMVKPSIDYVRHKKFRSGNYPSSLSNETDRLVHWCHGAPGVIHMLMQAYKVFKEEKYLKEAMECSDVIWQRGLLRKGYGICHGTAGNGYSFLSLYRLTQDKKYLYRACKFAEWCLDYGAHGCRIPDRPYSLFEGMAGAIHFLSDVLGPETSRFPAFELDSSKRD
Briefly: Surface plasmon resonance (SPR) binding to LANCL2. The settings on record: Tables 1A and 1B; read-out: SPR Affinity to LANCL2 (Kd). Background: Surface plasmon resonance follows binding to a sensor surface in real time, without labels.

Assay [2] concerns Mdr1a−/− mice. Briefly: Mdr1a−/− model of colitis (IBD). It counts as in vivo. The source says: Mdr1a−/− model. Mdr1a−/− mice develop spontaneous colitis. […] Mice were weighed and scored weekly to monitor the development of colitis. At 10 weeks of age, Mdr1a−/− were sacrificed for the collection of tissue for downstream assay. DSS model. Lancl2^ΔT and Lancl2-expressing controls were given dextran sulfate sodium in drinking water for seven days. Following seven days, standard drinking water was returned. Mice were weighed and scored daily. Mice were euthanized for tissue collection at 7 and 10 days of experimental timeline. Adoptive transfer model. WT and Lancl2−/− donor spleens were crushed and enriched for CD4+ fraction by magnetic sorting. CD4+CD45RB^hiCD25− (Teff) and CD4+CD45RB^loCD25+ (Treg) cells were sorted by a FACSAria cell sorter. Based on indicated experimental group, Rag2−/− recipient mice received 4×10^5 Teff and 1×10^5 Treg cells from WT or Lancl2−/− origin by intraperitoneal injection. […] Mice were weighed and scored weekly until euthanasia at 8 weeks post-transfer.
Colons and mesenteric lymph nodes (MLN) were collected into RPMI/FBS buffer containing collagenase (300U/mL) and DNase (50U/mL) for digestion. Following filtration of the resulting single cell suspensions, immune cells were purified by Percoll gradient. Cells were labeled with mixtures of extracellular (CD45, CD3, CD4, CD8, CD19, NK1.1, CD25, F4/80, CD11b, CX3CR1, CD64) and intracellular (Tbet, RORγT, FOXP3, IFNγ, IL17, IL10) antibodies in a sequential live staining in 96-well plates. Data was acquired using a FACS Celesta flow cytometer with FACSDiva software.
Total RNA from colon and cells was generated using the Qiagen RNeasy mini kit. cDNA was generated using the BioRad iScript cDNA synthesis kit. Standard curves were generated by serial dilution of purified product from a standard PCR reaction with Taq DNA polymerase followed by purification using the Qiagen MinElute PCR purification kit. Expression levels were obtained from quantitative real-time PCR with SybrGreen supermix on a BioRad CFX96 Thermal cycler followed by normalization to expression of β-actin as described previously.
H&E stained colonic sections were prepared from portions of colons collected into 10% buffered formalin and embedded in paraffin. Slides were examined by a board-certified veterinary pathologist via an Olympus microscope and images were collected with Image-Pro software. Samples were scored (0-4) for leukocytic infiltration, epithelial erosion and mucosal thickening.

In assay [3] the test system is Lancl2ΔT and Lancl2-expressing control mice challenged with DSS. Briefly: DSS model of colitis. It counts as in vivo.
For assay [4], the system named is CD4+ T cells co-cultured with in vitro differentiated Tregs. Briefly: Co-assay of CD4+ T cells and BT-11 pre-treated Treg cells. It counts as cell-based, mice. Here is the method: (§1) Spleens from WT and Lancl2−/− mice were excised and crushed to generate a single cell suspension. CD4+ T cell fraction was enriched by negative selection via magnetic sorting with the BD IMag system. Naïve CD4+ T cells were obtained by incubation with a biotinylated CD62L antibody followed by conjugation to streptavidin coated magnetic beads. Naïve cells were incubated for 48 hours within anti-CD3 coated tissue culture plates in complete IMDM media containing all-trans retinoic acid and purified TGF-β to stimulate differentiation into Tregs. […] Metabolic modulators, PS-48 (5 μM), DASA-58 (10 μM), and thapsigargin (10 nM), were added at 0 h. […] Six hours prior to assay, cells were stimulated with PMA and ionomycin. Cells were collected from plate for downstream analysis by flow cytometry, gene expression and metabolic assay.
After two days cells were collected and plated with freshly collected CFSE-labeled CD4+ T cells.

Assay [5] concerns in vitro differentiated Tregs. Kind of assay: Gene expression of Treg stability genes in in vitro differentiated Tregs. It counts as cell-based, mice. Particulars: WT Tregs.
Excerpt: Total RNA from colon and cells was generated using the Qiagen RNeasy mini kit. cDNA was generated using the BioRad iScript cDNA synthesis kit. Standard curves were generated by serial dilution of purified product from a standard PCR reaction with Taq DNA polymerase followed by purification using the Qiagen MinElute PCR purification kit. Expression levels were obtained from quantitative real-time PCR with SybrGreen supermix on a BioRad CFX96 Thermal cycler followed by normalization to expression of β-actin as described previously [33].
Spleens from WT and Lancl2−/− mice were excised and crushed to generate a single cell suspension. CD4+ T cell fraction was enriched by negative selection via magnetic sorting with the BD IMag system. Naïve CD4+ T cells were obtained by incubation with a biotinylated CD62L antibody followed by conjugation to streptavidin coated magnetic beads. Naïve cells were incubated for 48 hours within anti-CD3 coated tissue culture plates in complete IMDM media containing all-trans retinoic acid and purified TGF-β to stimulate differentiation into Tregs [18]. […] Metabolic modulators, PS-48 (5 μM), DASA-58 (10 μM), and thapsigargin (10 nM), were added at 0 h. […] Six hours prior to assay, cells were stimulated with PMA and ionomycin. Cells were collected from plate for downstream analysis by flow cytometry, gene expression and metabolic assay. […]
Assay [6] has as its system CD4+ T cells. Briefly: Differentiation of CD4+ T cells into Tregs with metabolic modulators. It counts as cell-based, mice. Particulars: BT-11 with PS-48 (5 μM), DASA-58 (10 μM) or thapsigargin (10 nM). Here is the method: as §1
Assay [7] relates to PBMCs from Crohn's disease donors. Kind of assay: PBMCs isolated from Crohn's disease donors, 24 hour culture. The class given is cell-based, human. Here is the method:
(§2) Fresh de-identified whole blood was obtained from commercial vendor. Blood was diluted and purified for PBMC fraction by LeukoSep tube. Remaining red blood cells were lysed by hypotonic lysis. […] For siRNA experiments, cells were first incubated with an OriGene 3-mer LANCL2 siRNA or scrambled control suspended within ViromerGreen transfection reagent for 6 hours. […] Cells were stimulated with PMA and ionomycin six hours prior to assay.
(§3) Whole blood was obtained from Crohn's disease patients, clinically categorized as mild to moderate disease.

Assay [8] relates to naïve CD4+ T cells isolated from human PBMCs. Briefly: Human naïve CD4+ T cells differentiated into Tregs. It counts as cell-based. The settings on record: differentiated into Tregs in presence of BT-11, dose dependent. Here is the method:
as §2, §3

Assay [9] concerns C. difficile strain VPI 10463 (ATCC 43255). Kind of assay: C. difficile infection animal model. Particulars: 8 mg/kg/d after infection. The class given is in vivo, mice.
In assay [10] the test system is in vitro differentiated Tregs. Kind of assay: STAT5a and FOXO1 phosphorylation by Western blot in in vitro differentiated Tregs. It counts as cell-based, mice. In general terms: A western blot detects proteins with antibodies after separation by electrophoresis.
Excerpt: Cells were also differentiated in the presence of inhibitors for PTEN (SF1670) or STATS (STAT5i).
For assay [11], the system named is Naïve CD4+ T cells. Kind of assay: Differentiation of naïve CD4+ T cells into Tregs with IL-2 or IL-12 (flow cytometry). It counts as cell-based, mice. The settings on record: media containing IL-2 or IL-12, inhibitor SF1670 or STAT5i. On the procedure:
Naïve CD4+ T cells were isolated from the spleens of mice by magnetic sorting. The isolated cells were incubated in anti-CD3/anti-CD28 coated 96 well plates in Treg differentiation media. The Treg differentiation media was Iscove's Modified Dulbecco's Medium (IMDM) media (ThermoFisher Scientific) supplemented with fetal bovine serum, HEPES, penicillin/streptomycin, L-glutamine, and differentiation agents. The Treg differentiation agents were 10 nM all-trans-retinoic acid and 5 ng/mL TGF-β. Additional experiments were conducted comparing differentiation in the Treg differentiation media with and without the addition of 10 ng/mL IL-2 or IL-12. […] Prior to assay, cells were stimulated with PMA and ionomycin for 6 hours.
Colonic lamina propria lymphocytes and cultured cells were plated in 96 well plates (6×10^5 cells/well) and processed for immunophenotyping by flow cytometry as previously described. Briefly, cells were incubated with fluorochrome conjugated antibodies to extracellular markers: CD45, CD4, CD3, CD25, CD8. Samples needing a secondary staining were incubated with secondary antibodies, or streptavidin-conjugated fluorochrome. The samples were then fixed and permeabilized. Cells were incubated with antibodies to intracellular markers: Tbet, IFNγ, IL10, FOXP3, IL17, RORγT. Data was acquired with a BD FACS Celesta flow cytometer and analyzed using FACS Diva software (BD Pharmingen). […]
(Flow cytometry measures light scatter and fluorescence of single cells or particles in a stream.)

Where [12] appears, read: WT Treg pre-treated with BT-11, 24 h co-assay.

“Also recorded” adds a separate entry of the source.

For orientation: Kd means the free concentration of one partner at which half of the binding sites on the other are occupied at equilibrium, for simple one-to-one binding. On to `O=C(c1cccc(-c2nc3ccccc3[nH]2)n1)N1CCN(C(=O)c2cccc(-c3nc4ccccc4[nH]3)n2)CC1` [BT-11, N,N-Bis(benzimidazolylpicolinoyl)piperazine], for which the Kd in assay [1] amounted to 7.7 µM. Further, the “colonic leukocytic infiltration, epithelial erosion and mucosal thickening” value in [2] (8 mg/kg oral daily, at 10 weeks of age) was “reduced colonic leukocytic infiltration, epithelial erosion and mucosal thickening”. In addition, the “disease activity (development of disease)” value in assay [2] (8 mg/kg oral daily, six weeks from four weeks of age) is recorded as “prevented the development of disease throughout the six-week period; also recorded: decreases disease activity index”. Besides, the “efficacy when given therapeutically” value in assay [2] (beginning after presentation of symptoms at 7 weeks of age) is “displays efficacy when given therapeutically”. The “percentages of IL-10-producing cellular subsets (CX3CR1+ macrophages, Treg cells)” value in assay [2] (colonic LP and MLN, 8 mg/kg oral daily) is reported as “increased percentages of IL-10-producing cellular subsets”. Moreover, the “inflammatory cytokines IFNγ, IL17A, IL6, TNFα, MCP1” value in assay [2] (colonic gene expression and cytometric bead array) is recorded as “Down-regulation of inflammatory cytokines”. In addition, the “Th1 and Th17 cells in colonic lamina propria and mesenteric lymph nodes” value in assay [2] (flow cytometry, 8 mg/kg oral daily) is given as “significant (P<0.05) reductions”. Also, the “whole colon Lancl2 expression” value in assay [2] (oral treatment) was “upregulated whole colon Lancl2”. In addition, the “Th1 and Th17 cells in colonic LP” value in [3] (Lancl2ΔT mice treated with BT-11) was “failed to induce characteristic reductions in Th1 and Th17 cells”. The “efficacy in DSS model with loss of LANCL2 in CD4+ T cells” value in assay [3] (Lancl2ΔT mice, seven-day DSS, oral BT-11) is “abrogated the efficacy of BT-11”. Moreover, the “proliferative index and TNFα/IFNγ expression” value in assay [4] (KO (Lancl2−/−) Treg pre-treated with BT-11) is “did not induce changes in either measure”. In [4] (setting [12]), the “expression of TNFα and IFNγ by cytometric bead array” value was “lowered”; the “proliferative index of CD4+ T cells (CFSE)” value is “lowered the proliferative index”. In assay [4] (WT Treg pre-treated with BT-11, after 24 h co-assay), the “retention of Treg (FOXP3+IL10+) phenotype” value is “greater retention of Treg (FOXP3+IL10+) phenotype”. For the same compound, the “expression of P2rx7” value in [5] (0.625 μM BT-11) is reported as “significantly upregulated (P<0.05)”. The “expression of Socs2, Capn3, Irf7 and Lag3” value in assay [5] (48 hours of BT-11 treatment, significant at 0.625 μM) is listed as “dose-dependent increase”. Further, in assay [6], the Treg cell differentiation result was “increased differentiation of Tregs”. Also, in assay [7] (24 hour culture with BT-11), the “percentage of IL-10+ and FOXP3+ cells” value is “higher percentage of IL-10+ and FOXP3+ cells”; the “percentages of TNFα+ and IFNγ+ cells” value is given as “lower percentages of TNFα+and IFNγ+ cells”. For the same compound, the “commitment to effector phenotypes (IFNγ+ cells)” value in assay [7] (augmented (external) PEP concentration) is on record as “prevented cells from an increased commitment to effector phenotypes”. In assay [8], the “stability-associated Treg markers (Lag3, Socs2, Irf7, P2rx7, Capn3, Ikzf2)” value was “upregulation of stability-associated Treg markers”. In assay [9], the “burden of C. difficile within the colon” value is listed as “did not induce a decrease in the burden of C. difficile”; the “colonic pathology including infiltration of leukocytes” value is “reduced colonic pathology”; the mortality result is given as “complete protection against mortality”; the “neutrophils, Th1 and Th17 cells within the lamina propria” value was “reduced neutrophils, Th1 and Th17 cells”. For the same compound, the “regulatory T cells within the lamina propria” value in [9] is listed as “increase in regulatory T cells”. In assay [9] (from day 2 onward), the disease activity scores entry is on record as “lower disease activity scores”. The STAT5a phosphorylation result in assay [10] (base Treg differentiation media and with IL-2 or IL-12) is given as “phosphorylated in a greater ratio”. The FOXO1 phosphorylation entry in assay [10] (base media and media containing IL-2, but not IL-12) is listed as “similarly affected”.

Take `CC(C)(C)C(=O)Nc1ccc2c(c1)C(=O)C(=O)c1ccccc1-2` [SF1670, reference compound]: the “effects of BT-11 on CD25+ FOXP3+ and CD25+ Tbet+ cells with inhibitors” value in [11] is “only prevented effects of BT-11 on CD25+ Tbet+ cells in IL-2 containing media”.
